Legend:
Assay in all cases: biochemical
[1] = molecular target: T1, panel of 374 wild-type kinases (Homo sapiens, UniProt O75676); settings: read-out: % Enzyme Activity (relative to DMSO controls), MSK2/RPS6KA4
T1 construct: purchased Reaction Biology Corporation

[2] = molecular target: T2, panel of 374 wild-type kinases (Homo sapiens, UniProt P06241); settings: read-out: % Enzyme Activity (relative to DMSO controls), FYN
T2 construct: purchased Reaction Biology Corporation

[3] = molecular target: T3, panel of 374 wild-type kinases (Homo sapiens, UniProt P28482); settings: read-out: % Enzyme Activity (relative to DMSO controls), ERK2/MAPK1
T3 construct: purchased Reaction Biology Corporation
T3 sequence (P28482 whole entry): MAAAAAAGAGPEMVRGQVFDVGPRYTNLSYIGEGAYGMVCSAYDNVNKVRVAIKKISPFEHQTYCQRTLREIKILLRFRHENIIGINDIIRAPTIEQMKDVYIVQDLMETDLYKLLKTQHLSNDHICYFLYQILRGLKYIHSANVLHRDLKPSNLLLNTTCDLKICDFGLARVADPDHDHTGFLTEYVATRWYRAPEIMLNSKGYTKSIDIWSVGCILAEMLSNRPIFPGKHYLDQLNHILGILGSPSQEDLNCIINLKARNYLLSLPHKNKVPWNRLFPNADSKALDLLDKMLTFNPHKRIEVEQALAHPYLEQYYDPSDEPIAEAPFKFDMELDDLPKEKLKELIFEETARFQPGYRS

[4] = molecular target: T4, panel of 374 wild-type kinases (Homo sapiens, UniProt P29323); settings: read-out: % Enzyme Activity (relative to DMSO controls), EPHB2
T4 construct: purchased Reaction Biology Corporation
T4 sequence (P29323 19-1055): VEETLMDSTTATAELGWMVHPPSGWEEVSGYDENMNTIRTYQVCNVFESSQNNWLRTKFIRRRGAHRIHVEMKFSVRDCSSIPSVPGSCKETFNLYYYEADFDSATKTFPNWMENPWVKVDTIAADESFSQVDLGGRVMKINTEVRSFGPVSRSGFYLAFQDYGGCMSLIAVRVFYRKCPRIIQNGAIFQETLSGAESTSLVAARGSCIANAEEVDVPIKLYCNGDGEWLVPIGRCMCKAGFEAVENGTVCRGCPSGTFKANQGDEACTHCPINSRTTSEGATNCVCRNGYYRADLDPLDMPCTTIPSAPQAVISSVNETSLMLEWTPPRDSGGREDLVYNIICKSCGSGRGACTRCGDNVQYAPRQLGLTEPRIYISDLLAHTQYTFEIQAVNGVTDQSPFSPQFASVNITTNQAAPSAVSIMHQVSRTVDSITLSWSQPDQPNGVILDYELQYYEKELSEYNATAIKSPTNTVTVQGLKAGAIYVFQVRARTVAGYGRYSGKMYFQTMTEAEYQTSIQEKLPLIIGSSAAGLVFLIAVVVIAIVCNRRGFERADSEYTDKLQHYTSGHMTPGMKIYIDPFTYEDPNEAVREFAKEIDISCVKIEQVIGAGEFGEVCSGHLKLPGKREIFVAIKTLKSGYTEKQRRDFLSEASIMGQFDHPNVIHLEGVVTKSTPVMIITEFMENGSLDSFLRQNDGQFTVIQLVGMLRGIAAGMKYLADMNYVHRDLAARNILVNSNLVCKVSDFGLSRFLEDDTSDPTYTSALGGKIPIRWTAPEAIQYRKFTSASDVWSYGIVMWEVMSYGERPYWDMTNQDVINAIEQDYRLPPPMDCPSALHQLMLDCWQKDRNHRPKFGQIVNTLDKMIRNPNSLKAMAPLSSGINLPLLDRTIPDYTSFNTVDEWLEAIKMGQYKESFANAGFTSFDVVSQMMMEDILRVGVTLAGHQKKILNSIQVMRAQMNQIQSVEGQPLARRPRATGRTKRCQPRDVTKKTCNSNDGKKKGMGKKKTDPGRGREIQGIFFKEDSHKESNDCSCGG

[5] = molecular target: T5, panel of 374 wild-type kinases (Homo sapiens, UniProt P36507); settings: read-out: % Enzyme Activity (relative to DMSO controls), MEK2
T5 construct: purchased Reaction Biology Corporation
T5 sequence (P36507 whole entry): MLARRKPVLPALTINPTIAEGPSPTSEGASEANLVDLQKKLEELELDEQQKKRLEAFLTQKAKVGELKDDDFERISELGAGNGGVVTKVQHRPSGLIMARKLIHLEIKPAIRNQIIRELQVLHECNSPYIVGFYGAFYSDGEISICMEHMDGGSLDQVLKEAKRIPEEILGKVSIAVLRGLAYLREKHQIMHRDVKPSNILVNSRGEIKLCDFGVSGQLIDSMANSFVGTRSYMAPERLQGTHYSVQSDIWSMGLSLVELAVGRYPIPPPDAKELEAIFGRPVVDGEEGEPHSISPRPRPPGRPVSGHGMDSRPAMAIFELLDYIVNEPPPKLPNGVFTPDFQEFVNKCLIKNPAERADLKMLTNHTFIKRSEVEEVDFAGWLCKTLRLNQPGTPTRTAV

[6] = molecular target: T6, panel of 374 wild-type kinases (Homo sapiens, UniProt P43250); settings: read-out: % Enzyme Activity (relative to DMSO controls), GRK6
T6 construct: purchased Reaction Biology Corporation
T6 sequence (P43250 whole entry): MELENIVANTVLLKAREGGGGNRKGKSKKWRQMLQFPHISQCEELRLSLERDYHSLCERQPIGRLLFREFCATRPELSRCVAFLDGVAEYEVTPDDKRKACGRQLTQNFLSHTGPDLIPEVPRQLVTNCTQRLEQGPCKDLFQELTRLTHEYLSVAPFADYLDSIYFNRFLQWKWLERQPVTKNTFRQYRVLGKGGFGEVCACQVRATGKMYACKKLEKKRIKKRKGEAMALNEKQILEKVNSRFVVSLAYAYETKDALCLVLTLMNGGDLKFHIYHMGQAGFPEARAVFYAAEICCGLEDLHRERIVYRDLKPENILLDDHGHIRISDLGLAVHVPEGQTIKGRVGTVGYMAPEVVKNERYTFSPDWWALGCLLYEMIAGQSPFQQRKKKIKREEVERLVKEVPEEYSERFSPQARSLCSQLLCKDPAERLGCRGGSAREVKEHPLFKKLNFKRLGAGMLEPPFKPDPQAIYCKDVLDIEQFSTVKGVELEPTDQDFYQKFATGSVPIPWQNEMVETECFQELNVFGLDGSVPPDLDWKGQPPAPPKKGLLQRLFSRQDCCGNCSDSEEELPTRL

[7] = molecular target: T7, panel of 374 wild-type kinases (Homo sapiens, UniProt Q8TD19); settings: read-out: % Enzyme Activity (relative to DMSO controls), NEK9
T7 construct: purchased Reaction Biology Corporation
T7 sequence (Q8TD19 1-979): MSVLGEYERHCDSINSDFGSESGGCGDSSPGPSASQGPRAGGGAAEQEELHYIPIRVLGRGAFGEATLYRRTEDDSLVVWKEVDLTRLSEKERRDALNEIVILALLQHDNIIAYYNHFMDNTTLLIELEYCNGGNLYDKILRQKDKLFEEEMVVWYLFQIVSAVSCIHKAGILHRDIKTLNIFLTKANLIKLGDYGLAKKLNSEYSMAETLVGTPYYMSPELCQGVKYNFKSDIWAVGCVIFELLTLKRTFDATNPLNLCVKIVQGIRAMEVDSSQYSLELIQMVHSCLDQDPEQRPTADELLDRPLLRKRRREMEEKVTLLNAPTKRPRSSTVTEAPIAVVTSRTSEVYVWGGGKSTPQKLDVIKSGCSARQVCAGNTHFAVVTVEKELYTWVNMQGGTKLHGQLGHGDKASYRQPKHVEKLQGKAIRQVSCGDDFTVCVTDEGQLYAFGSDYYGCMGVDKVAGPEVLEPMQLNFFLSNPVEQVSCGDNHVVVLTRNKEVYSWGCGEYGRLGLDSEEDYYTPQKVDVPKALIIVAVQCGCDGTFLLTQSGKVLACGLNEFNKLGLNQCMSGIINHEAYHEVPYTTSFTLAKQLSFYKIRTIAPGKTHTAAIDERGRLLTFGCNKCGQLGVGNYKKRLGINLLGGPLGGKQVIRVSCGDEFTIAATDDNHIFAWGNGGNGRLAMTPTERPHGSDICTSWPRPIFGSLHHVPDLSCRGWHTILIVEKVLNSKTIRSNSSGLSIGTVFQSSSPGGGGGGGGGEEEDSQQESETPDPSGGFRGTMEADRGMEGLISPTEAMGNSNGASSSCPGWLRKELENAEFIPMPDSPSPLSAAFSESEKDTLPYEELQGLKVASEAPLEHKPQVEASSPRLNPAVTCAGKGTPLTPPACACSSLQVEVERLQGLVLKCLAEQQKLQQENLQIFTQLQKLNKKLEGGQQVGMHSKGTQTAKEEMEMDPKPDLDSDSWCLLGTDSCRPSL

[8] = molecular target: T8, panel of 374 wild-type kinases (Homo sapiens, UniProt Q9BWU1); settings: read-out: % Enzyme Activity (relative to DMSO controls), CDK19/cyclin C
T8 construct: purchased Reaction Biology Corporation
T8 sequence (Q9BWU1 whole entry): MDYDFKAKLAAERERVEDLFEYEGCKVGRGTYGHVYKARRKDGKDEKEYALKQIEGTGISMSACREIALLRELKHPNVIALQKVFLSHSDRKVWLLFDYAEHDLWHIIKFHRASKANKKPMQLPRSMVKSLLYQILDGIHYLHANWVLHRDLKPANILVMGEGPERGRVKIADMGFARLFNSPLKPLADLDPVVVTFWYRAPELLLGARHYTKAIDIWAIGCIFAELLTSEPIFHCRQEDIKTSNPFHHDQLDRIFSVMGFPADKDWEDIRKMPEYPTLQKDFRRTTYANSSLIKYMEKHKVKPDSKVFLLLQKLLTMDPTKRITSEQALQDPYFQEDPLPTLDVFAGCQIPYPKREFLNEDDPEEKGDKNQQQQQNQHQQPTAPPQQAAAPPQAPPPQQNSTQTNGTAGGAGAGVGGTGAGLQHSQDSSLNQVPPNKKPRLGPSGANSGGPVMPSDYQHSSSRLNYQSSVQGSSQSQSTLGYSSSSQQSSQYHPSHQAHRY

T1 sequence (O75676 whole entry): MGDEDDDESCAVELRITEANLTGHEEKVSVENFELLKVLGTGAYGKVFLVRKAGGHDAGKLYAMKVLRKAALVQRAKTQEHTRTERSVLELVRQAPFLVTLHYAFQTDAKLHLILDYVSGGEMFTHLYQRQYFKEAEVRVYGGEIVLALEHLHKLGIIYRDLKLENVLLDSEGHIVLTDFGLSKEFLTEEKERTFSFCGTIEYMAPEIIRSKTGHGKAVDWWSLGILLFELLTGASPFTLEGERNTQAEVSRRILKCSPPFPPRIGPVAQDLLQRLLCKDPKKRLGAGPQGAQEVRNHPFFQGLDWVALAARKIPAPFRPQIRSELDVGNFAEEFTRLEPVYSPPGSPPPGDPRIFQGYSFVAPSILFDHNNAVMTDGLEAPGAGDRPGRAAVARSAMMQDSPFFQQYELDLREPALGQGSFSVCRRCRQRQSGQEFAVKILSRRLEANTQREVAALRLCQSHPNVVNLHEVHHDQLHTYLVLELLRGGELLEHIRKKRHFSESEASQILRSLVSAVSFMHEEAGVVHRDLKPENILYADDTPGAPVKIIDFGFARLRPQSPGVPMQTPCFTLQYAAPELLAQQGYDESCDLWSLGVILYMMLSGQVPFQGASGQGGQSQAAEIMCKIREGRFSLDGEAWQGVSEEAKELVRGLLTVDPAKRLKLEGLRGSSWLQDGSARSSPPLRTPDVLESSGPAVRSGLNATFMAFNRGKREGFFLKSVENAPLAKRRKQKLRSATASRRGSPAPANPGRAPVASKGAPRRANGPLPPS
T2 sequence (P06241 whole entry): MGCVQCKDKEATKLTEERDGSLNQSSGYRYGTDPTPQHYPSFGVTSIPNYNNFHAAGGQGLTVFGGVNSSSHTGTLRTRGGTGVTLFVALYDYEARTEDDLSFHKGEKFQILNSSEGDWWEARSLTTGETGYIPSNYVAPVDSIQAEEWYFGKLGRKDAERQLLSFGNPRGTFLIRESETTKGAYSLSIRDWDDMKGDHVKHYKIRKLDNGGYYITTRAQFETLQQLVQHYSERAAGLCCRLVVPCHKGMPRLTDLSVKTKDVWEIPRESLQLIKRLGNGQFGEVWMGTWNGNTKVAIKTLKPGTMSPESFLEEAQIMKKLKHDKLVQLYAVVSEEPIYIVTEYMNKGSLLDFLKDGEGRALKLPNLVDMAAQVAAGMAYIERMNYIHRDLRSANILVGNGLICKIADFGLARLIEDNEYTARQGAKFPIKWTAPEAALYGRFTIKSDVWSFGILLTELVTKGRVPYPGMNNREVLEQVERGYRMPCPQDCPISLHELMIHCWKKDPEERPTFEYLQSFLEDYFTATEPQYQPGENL

## O=C(Nc1cnn(-c2csc(C(=O)NC3COC3)c2)c1)Nc1ccccc1Cl [Compound 17, 4-(4-(3-(2-chlorophenyl)ureido)-1H-pyrazol-1-yl)-N-(oxetan-3-yl)thiophene-2-carboxamide]
[1]
  remaining activity at 5 µM: 90.7%
[2]
  remaining activity at 5 µM: 97.8%
[3]
  remaining activity at 5 µM: 110%
[4]
  remaining activity at 5 µM: 101%
[5]
  remaining activity at 5 µM: 92.2%
[6]
  remaining activity at 5 µM: 97.9%
[7]
  remaining activity at 5 µM: 104%
[8]
  remaining activity at 5 µM: 105%

## Cc1sc(C(=O)NC2COC2)cc1-n1cc(NC(=O)Nc2c(F)cccc2Cl)cn1 [Compound 27, 4-(4-(3-(2-chloro-6-fluorophenyl)ureido)-1H-pyrazol-1-yl)-5-methyl-N-(oxetan-3-yl)thiophene-2-carboxamide]
[1]; 10 uM
  remaining activity at 10 µM: 105%
[2]; 10 uM
  remaining activity at 10 µM: 99.8%
[3]; 10 uM
  remaining activity at 10 µM: 90.8%
[4]; 10 uM
  remaining activity at 10 µM: 109%
[5]; 10 uM
  remaining activity at 10 µM: 99.5%
[6]; 10 uM
  remaining activity at 10 µM: 91.5%
[7]; 10 uM
  remaining activity at 10 µM: 111%
[8]; 10 uM
  remaining activity at 10 µM: 98.1%

## O=C(Nc1cnn(-c2csc(C(=O)NC3COC3)c2)c1)Nc1c(F)cccc1Cl [Compound 25, 4-(4-(3-(2-chloro-6-fluorophenyl)ureido)-1H-pyrazol-1-yl)-N-(oxetan-3-yl)thiophene-2-carboxamide]
[1]
  remaining activity at 5 µM: 99.8%
[2]
  remaining activity at 5 µM: 90.3%
[3]
  remaining activity at 5 µM: 85.9%
[4]
  remaining activity at 5 µM: 99.9%
[5]
  remaining activity at 5 µM: 90.6%
[6]
  remaining activity at 5 µM: 102%
[7]
  remaining activity at 5 µM: 88.4%
[8]
  remaining activity at 5 µM: 96.2%

Reference: US20240246942A1, “KINASE INHIBITORS FOR THE TREATMENT OF NEURODEGENERATIVE DISEASES” (priority 2020, published 2024)
